Columns and labels:
[1] = tested on: MOLM-14 F691L (endogenous FLT3 ITD and transfected FLT3 F691L); assay: MOLM-14 F691L cell proliferation assay (CellTiter-Glo); type: cell-based; conditions: Homo sapiens, MOLM-14, 72 h; 3 d growth, GMean
Method in brief: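 Three-day proliferation at 37 °C/5% CO2 of FLT3-ITD MOLM-14 lines with D835Y or F691L mutation, seeded 1×10^4 per well. Compounds at eight points, top 1 μM final, 0.2% DMSO. ATP luminescence (CellTiter-Glo) gives IC50.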

[2] = target: T1, BA/F3-FLT3-ITD + D835Y (Homo sapiens, UniProt P36888, D835Y, cells depend on it, form not given); assay: Engineered BA/F3 cell growth assay, FLT3 ITD/D835Y; type: cell-based, murine; conditions: 3 d growth
T1 sequence (P36888 with tags, fused parts or gaps INS600HVDFREYEYD/D835Y): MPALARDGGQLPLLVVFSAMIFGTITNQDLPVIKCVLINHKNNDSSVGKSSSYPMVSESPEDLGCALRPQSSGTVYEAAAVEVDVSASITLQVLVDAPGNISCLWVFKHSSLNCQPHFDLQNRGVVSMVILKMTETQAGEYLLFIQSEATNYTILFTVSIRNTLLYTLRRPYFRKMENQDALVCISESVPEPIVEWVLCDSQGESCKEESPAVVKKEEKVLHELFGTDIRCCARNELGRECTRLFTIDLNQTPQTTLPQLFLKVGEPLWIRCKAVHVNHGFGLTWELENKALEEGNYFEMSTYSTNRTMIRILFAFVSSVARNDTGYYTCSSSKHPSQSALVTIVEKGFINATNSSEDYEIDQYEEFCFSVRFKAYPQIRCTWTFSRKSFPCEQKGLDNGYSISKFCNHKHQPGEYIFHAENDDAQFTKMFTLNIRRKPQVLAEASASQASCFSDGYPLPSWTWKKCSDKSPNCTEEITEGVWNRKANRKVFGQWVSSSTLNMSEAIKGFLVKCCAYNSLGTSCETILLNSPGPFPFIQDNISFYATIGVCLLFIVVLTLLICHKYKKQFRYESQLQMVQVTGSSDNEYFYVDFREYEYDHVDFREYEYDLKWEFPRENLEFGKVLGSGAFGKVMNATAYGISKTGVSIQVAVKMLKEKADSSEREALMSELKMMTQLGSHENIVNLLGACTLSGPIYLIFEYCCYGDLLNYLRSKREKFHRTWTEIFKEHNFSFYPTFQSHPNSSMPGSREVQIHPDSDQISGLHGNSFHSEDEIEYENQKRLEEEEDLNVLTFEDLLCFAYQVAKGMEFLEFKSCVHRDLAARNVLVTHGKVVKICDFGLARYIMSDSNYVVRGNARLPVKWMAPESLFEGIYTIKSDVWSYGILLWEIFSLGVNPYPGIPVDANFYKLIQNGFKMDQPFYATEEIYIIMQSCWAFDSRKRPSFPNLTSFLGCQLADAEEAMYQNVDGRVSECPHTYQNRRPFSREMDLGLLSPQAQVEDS
Method in brief: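 IC50 derived from CellTiter-Glo ATP luminescence after 3 days at 37 °C, 5% CO2, over eight 1:3 dilutions from 1 μM (0.2% DMSO final). Cells: IL-3-independent murine Ba/F3 expressing full-length FLT3 ITD/D835Y, 1×10^4 per well.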

[3] = target: CSF1R (Homo sapiens, UniProt P07333); assay: CSF1R 100 ATP 8 pt kinase assay (Table 6); type: biochemical
Description: The following Table 6 provides data indicating FLT3 ITD, D835Y and F691L; c-KIT and CSF1R biochemical and/or cell inhibitory activity for exemplary compounds as described herein.

Chain of CSF1R (P07333 20-972, species assumed): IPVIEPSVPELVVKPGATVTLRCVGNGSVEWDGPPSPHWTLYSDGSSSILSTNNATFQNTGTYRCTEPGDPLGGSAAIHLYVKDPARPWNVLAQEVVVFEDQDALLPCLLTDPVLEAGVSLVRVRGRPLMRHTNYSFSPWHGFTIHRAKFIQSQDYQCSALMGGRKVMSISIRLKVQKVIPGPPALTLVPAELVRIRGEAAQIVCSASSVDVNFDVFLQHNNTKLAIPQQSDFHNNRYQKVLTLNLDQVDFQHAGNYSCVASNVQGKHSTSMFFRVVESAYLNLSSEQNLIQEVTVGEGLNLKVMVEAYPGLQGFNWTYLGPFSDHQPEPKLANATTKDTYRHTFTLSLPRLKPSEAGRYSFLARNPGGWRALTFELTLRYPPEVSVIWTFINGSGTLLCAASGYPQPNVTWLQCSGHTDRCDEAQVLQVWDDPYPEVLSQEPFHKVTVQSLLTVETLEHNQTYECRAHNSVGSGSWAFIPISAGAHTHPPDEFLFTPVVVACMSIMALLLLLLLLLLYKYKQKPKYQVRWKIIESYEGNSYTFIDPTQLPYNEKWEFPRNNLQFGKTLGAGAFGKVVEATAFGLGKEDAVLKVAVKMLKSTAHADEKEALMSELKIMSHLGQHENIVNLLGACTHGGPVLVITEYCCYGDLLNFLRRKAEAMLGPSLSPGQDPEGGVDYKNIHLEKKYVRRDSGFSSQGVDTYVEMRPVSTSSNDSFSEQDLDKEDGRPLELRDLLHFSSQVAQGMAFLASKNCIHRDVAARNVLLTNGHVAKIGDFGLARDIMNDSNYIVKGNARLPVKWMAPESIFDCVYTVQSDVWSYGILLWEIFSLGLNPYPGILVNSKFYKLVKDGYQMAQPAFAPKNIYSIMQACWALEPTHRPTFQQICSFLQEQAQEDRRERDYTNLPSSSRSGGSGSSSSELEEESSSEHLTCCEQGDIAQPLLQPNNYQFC

Row | IC50 [1] [µM] | GI50 [2] [µM] | IC50 [3] [µM] | Structure (SMILES)
1 | 0.0001 to 10 | 0.0001 to 10 | 0.0001 to 10 | O=C(Cc1ccc(-c2cnc3[nH]nc(C4CC4)c3c2)cc1)Nc1cncc(C(F)(F)F)c1 [Compound P-0073, 2-[4-(3-cyclopropyl-1H-pyrazolo[3,4-b]pyridin-5-yl)phenyl]-N-[5-(trifluoromethyl)-3-pyridyl]acetamide]
2 | 0.0001 to 10 | 0.0001 to 10 | 0.0001 to 10 | O=C(Cc1ccc(-c2cnc3[nH]nc(C4CC4)c3c2)cc1F)Nc1cncc(C(F)(F)F)c1 [Compound P-0072, 2-[4-(3-cyclopropyl-1H-pyrazolo[3,4-b]pyridin-5-yl)-2-fluoro-phenyl]-N-[5-(trifluoromethyl)-3-pyridyl]acetamide]
